Test results reported in patent publication US11872228B2, “Pharmaceutical composition containing thiamine derivative for prevention or treatment of sepsis” (KYUNGPOOK NATIONAL UNIVERSITY INDUSTRY-ACADEMIC COOPERATION …, priority 2021, dated 2024).
Like-named read-outs stand apart in the source and are kept apart here.

Assays:
[1] = system: LPS-induced sepsis mouse model
Description: (The signs of the moribund state: impaired mobility, inability to maintain upright position, prolonged lack of activity and labored breathing)
Six- to eight-week old C57BL/6J male mice were grouped, each group containing seven mice. The whole experimental schedule is shown FIG. 1. The mice were fed fursultiamine 24 hours and 30 minutes before intraperitoneal injection of 40 mg/kg LPS, and then again administered fursultiamine 6 hours after the intraperitoneal injection, and then the survival rates of the mice were monitored and the results are shown in FIG. 2 and Table 1.

[2] = system: TNFα; test: Inhibition of TNFα expression in LPS-activated dendritic cells (ELISA of supernatants); format: cell-based, C57BL/6J male mice; settings: for TNFα (pg/mL): dendritic cells, 100 ng/mL LPS 18 h
Description: (§1) The dendritic cells at 1×10^6 cells/mL were treated with benfotiamine and fursultiamine at different concentrations of 0, 1, 10, and 100 and allithiamine at different concentrations of 0, 1, and 10 μM.
Thereafter, the dendritic cells were activated with 100 ng/mL LPS for 18 hours.

[3] = system: IL-1β; test: Inhibition of IL-1β expression in LPS-primed, ATP-treated dendritic cells; format: cell-based, C57BL/6J male mice; settings: for IL-1β: LPS priming + 5 mM ATP
Description: Bone marrow was extracted from the legs of six- to eight-week old C57BL/6J male mice, and subjected to red blood cell (RBC) lysis, followed by differentiation into dendritic cells in RPMI 1640 medium (10% fetal bovine serum (FBS) and 1% penicillin-streptomycin) along with 20 ng/ml granulocyte-macrophage colony-stimulating factor (GM-CSF) for six days. The dendritic cells at 1×10^6 cells/mL were treated with benfotiamine and fursultiamine at different concentrations of 0, 1, 10, and 100 and allithiamine at different concentrations of 0, 1, and 10 μM.
The dendritic cells were subjected to pro-IL1b priming by the treatment with 500 ng/mL LPS for 3 hours, and then treated with benfotiamine at 0, 10, 50, or 100 and fursultiamine at 0, 10, 50, or 100 μM, for 15 minutes. Then, pro-IL1b was converted into IL-1β through pro-IL1b cleavage, followed by 5 mM ATP treatment for inducing inflammasome formation.

[4] = system: CD40; test: CD40 expression in CD11c+ dendritic cells by flow cytometry; format: cell-based, C57BL/6J male mice
Description: as §1
(§2) The dendritic cells were measured for CD40 and CD86 in CD11c+ cells by flow cytometry, and the results are shown in FIGS. 6A and 6B and Tables 5 and 6.

[5] = system: CD86; test: CD86 expression in CD11c+ dendritic cells by flow cytometry; format: cell-based, C57BL/6J male mice
Description: as §1, §2

[6] = system: IL-1β
[7] = system: TNFα; test: Inhibition of TNFα expression in LPS-activated dendritic cells (ELISA of supernatants); format: cell-based, C57BL/6J male mice; settings: for TNFα expression level relative to LPS alone: LPS-activated dendritic cells
[8] = system: CD86; test: CD86 expression in CD11c+ dendritic cells by flow cytometry; format: cell-based, C57BL/6J male mice; settings: 50 μM, 100 ng/mL LPS
[9] = 1 μM, dendritic cells, 100 ng/mL LPS
[10] = 10 μM, dendritic cells, 100 ng/mL LPS
[11] = 100 μM, dendritic cells not stimulated by LPS
[12] = 100 μM, dendritic cells, 100 ng/mL LPS

## CC(=C(CCO)SSCC1CCCO1)N(C=O)Cc1cnc(C)nc1N (stereo in doubt) [Fursultiamine, fursultiamine]
[1]; fed 100 mg/kg, 40 mg/kg LPS i.p.
  Survival despite LPS injection (in words): not dead
[1]; fursultiamine 100 mg/kg fed 24 h and 30 min before and 6 h after 40 mg/kg LPS i.p., 0 d
  Percent survival (%): 100%
[1]; fursultiamine 100 mg/kg fed, 40 mg/kg LPS i.p., 1 d
  Percent survival (%): 100%
[1]; fursultiamine 100 mg/kg fed, 40 mg/kg LPS i.p., 2 d
  Percent survival (%): 100%
[1]; fursultiamine 100 mg/kg fed, 40 mg/kg LPS i.p., 3 d
  Percent survival (%): 100%
[1]; fursultiamine 100 mg/kg fed, 40 mg/kg LPS i.p., 4 d
  Percent survival (%): 100%
[1]; fursultiamine 100 mg/kg fed, 40 mg/kg LPS i.p., 5 d
  Percent survival (%): 100%
[1]; fursultiamine 100 mg/kg fed, 40 mg/kg LPS i.p., 6 d
  Percent survival (%): 100%
[1]; fursultiamine 100 mg/kg fed, 40 mg/kg LPS i.p., 7 d
  Percent survival (%): 100%
[2]; 1 μM
  TNFα (pg/mL): 4,954.64 pg/mL
[2]; 10 μM, LPS-activated dendritic cells
  TNFα expression level relative to LPS alone: about 68.60%
[2]; 10 μM
  TNFα (pg/mL): 3,600.63 pg/mL
[2]; 100 μM
  TNFα (pg/mL): 1,628.26 pg/mL
[3]; 10 μM
  IL-1β: 878.0075 pg/mL
[3]; 50 μM
  IL-1β expression level relative to LPS + ATP alone: about 85.8237%
  IL-1β: 799.4891 pg/mL
[3]; 100 μM
  IL-1β expression level relative to LPS + ATP alone: about 63.6037%
  IL-1β: 592.4987 pg/mL
[4]; [9]
  CD40 (Mean fluorescence intensity; MFI): 1,992 MFI
[4]; [10]
  CD40 (Mean fluorescence intensity; MFI): 2,026 MFI
[4]; 100 μM, dendritic cells
  CD40 expression level relative to LPS alone: about 62%
[4]; [11]
  CD40 (Mean fluorescence intensity; MFI): 253 MFI
[4]; [12]
  CD40 (Mean fluorescence intensity; MFI): 1,245 MFI
[5]; [9]
  CD86 (Mean fluorescence intensity; MFI): 2,684 MFI
[5]; [10]
  CD86 (Mean fluorescence intensity; MFI): 2,864 MFI
[5]; 100 μM, dendritic cells
  CD86 expression level relative to LPS alone: about 13%
[5]; [11]
  CD86 (Mean fluorescence intensity; MFI): 382 MFI
[5]; [12]
  CD86 (Mean fluorescence intensity; MFI): 351 MFI
[6]; fursultiamine (50 mg/kg as in table; 100 mg/kg in text) along with LPS, 0 h
  IL-1β: 4.483 pg/mL
[6]; fursultiamine along with LPS, 1 h
  IL-1β: 6.115 pg/mL
[6]; fursultiamine along with LPS, 3 h
  IL-1β: 96.715 pg/mL
[6]; fursultiamine along with LPS, 6 h
  IL-1β: 186.088 pg/mL
[6]; fursultiamine along with LPS, 6 hours
  IL-1β expression level relative to the control without administration: about 54.936%
[6]; fursultiamine along with LPS, 12 h
  IL-1β: 495.824 pg/mL
[6]; fursultiamine along with LPS, 12 hours
  IL-1β expression level relative to the control without administration: about 60.777%
[6]; fursultiamine along with LPS, 18 h
  IL-1β: 171.451 pg/mL
[6]; fursultiamine along with LPS, 18 hours
  IL-1β expression level relative to the control without administration: about 29.673%
[7]; 50 μM
  TNFα expression level relative to LPS alone: about 57.22%
[7]; 50 μM, dendritic cells, 100 ng/mL LPS 18 h
  TNFα (pg/mL): 3,003.47 pg/mL
[7]; 100 μM
  TNFα expression level relative to LPS alone: about 31.02%
[7]; [11]
  TNFα: 38.37 pg/mL
[8]
  CD86 (Mean fluorescence intensity; MFI): 1,275 MFI
